± gives the expanded uncertainty stated by the source.
Key:
[1] = xn = mol fraction of the nth substance listed; details: 100 kPa, Liquid, Vibrating tube method
[2] = molar heat capacity at constant pressure; xn = mol fraction of the nth substance listed; details: 100 kPa, Liquid, Extra sensitive DSC

Cc1ccc(C(C)C)cc1 [1-(1-methylethyl)-4-methylbenzene] + CCCO
Details | mass density, 298.15 K [kg/m3] | mass density, 308.15 K [kg/m3] | mass density, 318.15 K [kg/m3] | mass density, 328.15 K [kg/m3] | molar heat capacity at constant pressure, 298.8 K [J/K/mol] | molar heat capacity at constant pressure, 308.7 K [J/K/mol] | molar heat capacity at constant pressure, 318.6 K [J/K/mol] | molar heat capacity at constant pressure, 328.5 K [J/K/mol]
[1], x1 = 0.0499 | 804.92 ± 0.71 | 796.73 ± 0.71 | 788.38 ± 0.71 | 779.8 ± 0.71 | – | – | – | –
[1], x1 = 0.1007 | 809.8 ± 0.71 | 801.54 ± 0.71 | 793.11 ± 0.71 | 784.46 ± 0.71 | – | – | – | –
[1], x1 = 0.2029 | 818.12 ± 0.71 | 809.76 ± 0.71 | 801.22 ± 0.71 | 792.47 ± 0.71 | – | – | – | –
[1], x1 = 0.3021 | 824.8 ± 0.71 | 816.37 ± 0.71 | 807.78 ± 0.71 | 798.98 ± 0.71 | – | – | – | –
[1], x1 = 0.4032 | 830.42 ± 0.71 | 821.98 ± 0.71 | 813.38 ± 0.71 | 804.59 ± 0.71 | – | – | – | –
[1], x1 = 0.5045 | 835.28 ± 0.71 | 826.83 ± 0.71 | 818.25 ± 0.71 | 809.51 ± 0.71 | – | – | – | –
[1], x1 = 0.6044 | 839.47 ± 0.71 | 831.05 ± 0.71 | 822.51 ± 0.71 | 813.82 ± 0.71 | – | – | – | –
[1], x1 = 0.6974 | 842.95 ± 0.71 | 834.57 ± 0.71 | 826.09 ± 0.71 | 817.49 ± 0.71 | – | – | – | –
[1], x1 = 0.8035 | 846.57 ± 0.71 | 838.26 ± 0.71 | 829.87 ± 0.71 | 821.37 ± 0.71 | – | – | – | –
[1], x1 = 0.8989 | 849.61 ± 0.71 | 841.39 ± 0.71 | 833.1 ± 0.71 | 824.75 ± 0.71 | – | – | – | –
[1], x1 = 0.9508 | 851.22 ± 0.71 | 843.07 ± 0.71 | 834.88 ± 0.71 | 826.65 ± 0.71 | – | – | – | –
[1], x1 = 1 | 852.99 ± 0.71 | 844.94 ± 0.71 | 836.86 ± 0.71 | 828.75 ± 0.71 | – | – | – | –
[2], x1 = 0.0499 | – | – | – | – | 151.2 ± 5.9 | 158.5 ± 6.1 | 165.9 ± 6.4 | 173.4 ± 6.7
[2], x1 = 0.1007 | – | – | – | – | 159.6 ± 6.2 | 166.5 ± 6.5 | 173.5 ± 6.7 | 180.7 ± 7
[2], x1 = 0.2029 | – | – | – | – | 174.5 ± 6.8 | 182.2 ± 7.1 | 188.4 ± 7.3 | 195.4 ± 7.6
[2], x1 = 0.3021 | – | – | – | – | 186.9 ± 7.2 | 194 ± 7.5 | 201.2 ± 7.8 | 208.3 ± 8.1
[2], x1 = 0.4032 | – | – | – | – | 198.6 ± 7.7 | 206.1 ± 8 | 213.2 ± 8.3 | 220.7 ± 8.5
[2], x1 = 0.5045 | – | – | – | – | 210.6 ± 8.2 | 217.2 ± 8.4 | 223.9 ± 8.7 | 231.2 ± 9
[2], x1 = 0.6044 | – | – | – | – | 221 ± 8.6 | 227.2 ± 8.8 | 233.3 ± 9 | 240.2 ± 9.3
[2], x1 = 0.6974 | – | – | – | – | 229.1 ± 8.9 | 235 ± 9.1 | 240.8 ± 9.3 | 246.8 ± 9.6
[2], x1 = 0.8035 | – | – | – | – | 237.6 ± 9.2 | 242.8 ± 9.4 | 248.1 ± 9.6 | 253.4 ± 9.8
[2], x1 = 0.8989 | – | – | – | – | 242.2 ± 9.4 | 246.2 ± 9.5 | 250.4 ± 9.7 | 254.5 ± 9.9
[2], x1 = 0.9508 | – | – | – | – | 242.4 ± 9.4 | 245.3 ± 9.5 | 248.8 ± 9.6 | 252.6 ± 9.8
[2], x1 = 1 | – | – | – | – | 240.9 ± 9.3 | 244.8 ± 9.5 | 249.4 ± 9.7 | 254.6 ± 9.9

Reference: the NIST ThermoML archive (doi:10.1016/j.jct.2018.03.021)
